In patent publication US6391344B2, “Method of promoting synthesis of nerve growth factor” (Nagase & Company, Ltd., priority 1999, dated 2002):

System: Human glioblastoma cells (T98G, Cell line)
Experiment: Promotion of NGF synthesis: NGF content in culture supernatant by enzyme immunoassay
Assay type: cell-based
Conditions: for NGF Content in sample solution / content of NGF in the sample solution as compared with the systems not containing any effective ingredient: T98G cells; for NGF Content in sample solution: 4 days cultivation, mean ± standard deviation; for Relative NGF content: ratio of example solution to comparative example solution; for content of NGF in the sample solution as compared with the systems not containing any effective ingredient: result in words, both tested concentrations
Protocol: Human glioblastoma cells (T98G, Cell line) were seeded in a MEM medium containing fetal bovine serum (10%; Gibco), sodium pyruvate (×1; Gibco) and nonessential amino acids (×1; Gibco) in wells of a flat-bottom 96-well plate (Corning), in a cell density of 2×10^4/well, and cultivated in a CO2 incubator (37° C., 5% CO2) for 3 days. The medium was then replaced by an Opti-MEM medium (containing 5 mg/ml of bovine serum albumin). The cultivation was continued for further 6 days with replacing the medium at intervals of 3 days.
[…] After the cultivation, the supernatant was taken as a sample solution.
On the other hand, 1 ug/ml of an anti-NGF antibody (Promega) solution (50 ul) was added to each well of a 96-well microplate (Nunc), and the plate was allowed to stand overnight at 4° C. After washing the plate with PBS(−) (Nissui Pharmaceuticals), 1% of a bovine serum albumin (Sigma) solution (100 ul) was added to each well of the plate and the plate was allowed to stand at room temperature for 4 hrs. Subsequently, the plate was washed with PBS (−) and the above sample solution (50 ul) was added to each well of the plate. After the reaction at room temperature for one hour, the plate was washed with PBS (−).
Subsequently, 0.4 unit/ml of an beta-galactosidase-labeled anti-NGF antibody (Boehringer Mannheim) solution (50 ul) was added to each well of the plate, and allowed to react at room temperature for one hour. After washing the plate with PBS (−), 0.5 mg/ml of a 4-methylumbelliferyl-beta-D-galactoside solution (200 ul) was added to each well of the plate, and allowed to react overnight at room temperature. The fluorescence intensity of 4-methylumbelliferone produced was measured on a fluorescence plate reader, and the content of NGF contained in the sample solution was determined using a standard curve obtained from a standard solution (human beta-NGF; PEPRO TECH EC).

[1] = 20 uM effective ingredient in medium
[2] = 100 uM effective ingredient in medium

Compound | NGF Content in sample solution [1] | Relative NGF content [1] | NGF Content in sample solution [2] | Relative NGF content [2] | content of NGF in the sample solution as compared with the systems not containing any effective ingredient
CC(C)c1cc2c(c(O)c1O)[C@@]1(C(=O)O)CCCC(C)(C)C1CC2 (stereo partly shown) [Carnosic acid of formula (I), carnosic acid] | 46.0 ± 7.4 pg/mL | 7.2 | 158.5 ± 16.6 pg/mL | 24.8 | 
CC(C)c1cc2c(c(O)c1O)[C@@]13CCCC(C)(C)C1C[C@@H]2OC3=O (stereo partly shown) [Carnosol of formula (II), carnosol] | 35.4 ± 6.9 pg/mL | 5.5 | 39.9 ± 2.3 pg/mL | 6.2 | 
CC(C)c1cc2c(c(O)c1O)[C@@]1(C(=O)O)CCCC(C)(C)[C@@H]1CC2 [carnosic acid of the formula (I)] |  |  |  |  | increases
CC(C)c1cc2c(c(O)c1O)[C@@]13CCCC(C)(C)[C@@H]1C[C@@H]2OC3=O [carnosol of the formula (II)] |  |  |  |  | increases
